Source: paper PMC8795197, “Safety and activity of WX-0593 (Iruplinalkib) in patients with ALK- or ROS1-rearranged advanced non-small cell lung cancer: a phase 1 dose-escalation and dose-expansion trial” (Signal Transduction and Targeted Therapy, 2022)

Key:
[1] = tested on: Ba/F3 (EML4-ALK-C1156Y); experiment: Cell proliferation inhibition assay; assay type: cell-based
[2] = molecular target: M1 (Homo sapiens, UniProt P11229); experiment: GPCR antagonist screening assay; assay type: cell-based
[3] = molecular target: M2 (Homo sapiens, UniProt P08172); experiment: GPCR antagonist screening assay; assay type: cell-based
Sequence of M2 (P08172 whole entry): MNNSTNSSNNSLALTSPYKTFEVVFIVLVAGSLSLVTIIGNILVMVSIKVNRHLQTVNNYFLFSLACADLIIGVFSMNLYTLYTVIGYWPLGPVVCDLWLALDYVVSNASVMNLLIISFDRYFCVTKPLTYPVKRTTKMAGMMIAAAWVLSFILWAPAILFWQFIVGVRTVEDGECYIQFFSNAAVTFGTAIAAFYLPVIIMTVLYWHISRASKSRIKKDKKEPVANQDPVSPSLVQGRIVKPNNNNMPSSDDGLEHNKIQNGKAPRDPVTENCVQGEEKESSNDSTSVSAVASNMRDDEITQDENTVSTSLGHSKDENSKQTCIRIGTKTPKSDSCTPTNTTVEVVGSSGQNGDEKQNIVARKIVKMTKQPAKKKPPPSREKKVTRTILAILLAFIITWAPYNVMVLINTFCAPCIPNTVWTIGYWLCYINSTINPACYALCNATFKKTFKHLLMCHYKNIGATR

[4] = molecular target: Eta (Homo sapiens, UniProt P25101); experiment: GPCR antagonist screening assay; assay type: cell-based
Sequence of Eta (P25101 21-427): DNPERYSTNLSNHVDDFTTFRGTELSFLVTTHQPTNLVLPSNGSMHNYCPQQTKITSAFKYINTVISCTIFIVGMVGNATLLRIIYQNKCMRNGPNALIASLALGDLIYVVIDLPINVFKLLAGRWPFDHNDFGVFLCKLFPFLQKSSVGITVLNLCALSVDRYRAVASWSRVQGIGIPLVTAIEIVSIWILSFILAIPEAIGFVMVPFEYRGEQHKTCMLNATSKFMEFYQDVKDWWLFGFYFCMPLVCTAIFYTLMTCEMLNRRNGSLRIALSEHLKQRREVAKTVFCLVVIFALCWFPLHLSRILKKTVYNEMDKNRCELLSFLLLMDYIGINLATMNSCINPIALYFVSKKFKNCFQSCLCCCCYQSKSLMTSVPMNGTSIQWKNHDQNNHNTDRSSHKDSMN

[5] = Metabolite identification in plasma; assay type: in vivo, cynomolgus monkey; conditions: oral WX-0593
Text: Under current experimental conditions, 1 metabolite in addition to the parent drug was detected in monkey plasma: a demethylation metabolite, M2 (MW = 554.23, P - CH2). Based on the % peak area from mass spectrometry, the drug exists primarily as the parent drug in the plasma of both male and female monkeys (99.06% in females and 99.47% in males). Metabolite M2 (0.94% in females and 0.53% in males) was a secondary metabolite. Based on the types of metabolites, it is speculated that WX-0593 is mainly metabolized through demethylation after oral administration in monkeys. There was no significant difference in metabolites between female and male monkeys.

[6] = General pharmacology: cardiovascular system; assay type: in vivo, monkeys
Description: […]. Therefore, WX-0593 has a low risk of cardiotoxicity. There were no effects on the CNS and respiratory system in rats at doses of 3, 10, and 30 mg/kg. However, WX-0593 10 and 30 mg/kg may result in benign respiratory rate and decreases in minute ventilation in female rats. There were no effects on the cardiovascular system, blood pressure, ECG parameters or waveforms in monkeys at doses of 5, 10, and 25 mg/kg; 10 and 25 mg/kg may result in mild decreases in heart rate (within the normal range) and PR prolongation and QTc shortening associated with bradycardia within the normal range (no statistical difference when compared to the control arm). No cardiovascular system adverse reactions related to the test product were found. The human equivalent dose (using 60 kg) is 3636 mg/person in CNS, 3636 mg/person in male respiratory system and 363.6 mg/person in female respiratory system, and 607 mg/person in cardiovascular system.

[7] = in vivo; parameters: species or system nude mice; conditions: mouse
Description: The severely toxic dose in 10% of the animals (STD10) in rodents was > 30 mg/kg. At a dose of 10 mg/kg/day, AUC0-24h (Day 28) was 16800 h·ng/mL in males and 17300 h·ng/mL in females, which is 4.5 times and 4.7 times of the exposure at the effective dose in mice (2.5 mg/kg, AUC0-24h: 3700 h·ng/mL). At a dose of 30 mg/kg/day, AUC0-24h (Day 28) was 27100 h·ng/mL in males and 42400 h·ng/mL in females, which is 7.3 times and 11.5 times of the exposure at the effective dose in nude mice (2.5 mg/kg, AUC0-24h: 3700 h·ng/mL).

Sequence of M1 (P11229 whole entry): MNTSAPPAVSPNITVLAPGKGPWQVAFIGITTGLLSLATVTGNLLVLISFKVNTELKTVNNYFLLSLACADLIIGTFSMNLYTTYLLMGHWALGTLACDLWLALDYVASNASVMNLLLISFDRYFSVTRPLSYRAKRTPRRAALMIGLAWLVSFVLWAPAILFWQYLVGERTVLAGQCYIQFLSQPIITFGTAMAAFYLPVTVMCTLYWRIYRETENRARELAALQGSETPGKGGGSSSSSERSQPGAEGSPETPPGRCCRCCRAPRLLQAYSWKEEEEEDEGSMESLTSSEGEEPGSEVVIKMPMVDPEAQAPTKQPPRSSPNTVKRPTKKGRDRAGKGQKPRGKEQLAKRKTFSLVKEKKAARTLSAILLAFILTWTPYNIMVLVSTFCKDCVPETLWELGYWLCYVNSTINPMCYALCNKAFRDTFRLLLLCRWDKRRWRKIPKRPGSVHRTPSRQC

COc1cc(N2CCC3(CCN(C)CC3)CC2)ccc1Nc1ncc(Cl)c(Nc2ccccc2P(C)(C)=O)n1 [WX-0593]
growth inhibition [1]: significantly inhibits the growth
IC50 [2]: > 10 µM
IC50 [3]: > 10 µM
IC50 [4]: 0.5 µM
% peak area from mass spectrometry in plasma ([5]; female monkeys): 99.06%
% peak area from mass spectrometry in plasma ([5]; male monkeys): 99.47%
effects on cardiovascular system, blood pressure, ECG parameters or waveforms ([6]; 5, 10 and 25 mg/kg): no effects
human equivalent dose, cardiovascular system ([6]; using 60 kg): 607 mg/person
murine effective dose [7]: 2.5 mg/kg
AUC(0-t) ([7]; nude, 2.5 mg/kg): 3700 ng·h/mL
